Here are results for one compound from patent US20190351069A1, “Coating of Nanoparticle Surfaces with Cyclopeptides for Improving Delivery of Agents Via the Oral Route” (Ruprecht-Karls-Universität Heidelberg, priority 2016, published 2019).

This data set can be described thus: Stability of cell-penetrating peptides in simulated gastric and intestinal fluid (HPLC/MS). Type of data set: in vitro ADME. As to the method:
Both CPPs (1 mg/mL in water) were diluted 1:1 (v/v) with either simulated gastric fluid or simulated intestinal fluid and incubated at 37° C. under constant shaking as described in the art. After 0, 15, 30 and 60 min, the samples were analyzed by HPLC/MS in order to detect the recovery of intact CPP and were compared in relation with the initial solution. • Cytotoxicity Assays • Cell Cultivation

Where a SMILES comes first, the peptide text is derived from it.

Take `N=C(N)NCCC[C@@H]1NC(=O)[C@H](CS)NC(=O)[C@H](CCCNC(=N)N)NC(=O)[C@H](CCCNC(=N)N)NC(=O)[C@H](CCCNC(=N)N)NC(=O)[C@H](CCCNC(=N)N)NC(=O)[C@H](CCCNC(=N)N)NC(=O)[C@H](CCCNC(=N)N)NC(=O)[C@H](CCCNC(=N)N)NC(=O)[C@H](CCCNC(=N)N)NC1=O` [cyclic CPP] (cyclo(RRRRRRRRRC); ring closure inferred): where the note is “over one hour”, the “stability in intestinal fluid” value is “only a moderate loss” and the “stability in simulated gastric fluid” value is “high stability”. For the same compound, for the setting “simulated intestinal fluid, after one hour, 37° C., read-out: intact CPP”, the remaining at 1 h, 0.5 mg/mL was 47.3%.
